Measurements: patent publication US8519163B2, “Anti-tumor activity of AECHL-1, novel triterpenoid isolated from Ailanthus excelsa in vitro and in vivo” (National Centre for Cell Science, priority 2008, dated 2013)
Values joined by “and” are separate entries in the source; they are usually repeats but may differ in a detail not shown here. Identical values can stand only once.

Key:
[1] = tested on: MCF-7 cells; assay: Cell cycle analysis by flow cytometry; format: cell-based, human; details: for Phase of cell cycle (% of cells) G1 / Phase of cell cycle (% of cells) G2/M / Phase of cell cycle (% of cells) S / Phase of cell cycle (% of cells) Sub G0: 24 h
Protocol: (§1) The cell cycle analysis of MCF-7, B16F10 MDA-MB-231 and PC3 cells was done by flow cytometry. […] Cells were harvested with trypsin (0.05%), 0.02% EDTA, 0.05% glucose and a single-cell suspension was prepared. Cells were washed and were pelleted by centrifugation (1000×g for 2 min) and fixed in 70% ethanol while vortexing and stored at 4° C. for 1 hour. Fixed cells were pelleted by centrifugation, to remove ethanol and washed with PBS. Cells were re-suspended in PBS containing 50 μg/ml propidium iodide, 0.1 g/L RNase and 1% BSA, incubated for 30 min at 37° C. in the dark, and analyzed with flow cytometry (FACS Vantage-BD Sciences, USA) equipped with an argon laser at 488 nm. The data was analyzed using Cell Quest software for determining the percent population in different phases of cell cycle.

[2] = tested on: PC3 cells; assay: Cell cycle analysis by flow cytometry; format: cell-based, human; details: for Phase of cell cycle (% of cells) G1 / Phase of cell cycle (% of cells) G2/M / Phase of cell cycle (% of cells) S / Phase of cell cycle (% of cells) Sub G0: 24 h
Protocol: as §1

[3] = tested on: MDA-MB-231 cells; assay: Cell cycle analysis by flow cytometry; format: cell-based, human; details: for Phase of cell cycle (% of cells) G1 / Phase of cell cycle (% of cells) G2/M / Phase of cell cycle (% of cells) S / Phase of cell cycle (% of cells) Sub G0: 24 h
Protocol: as §1

[4] = tested on: pp53; assay: Western blot of tumor homogenates of C57B1/6 mice; format: in vivo, mouse; details: tumor of C57 mice
Protocol: (§2) Prior to immunoblot analysis, tumor segments stored at −80° C. were thawed, washed, minced and homogenized in lysis buffer (120 mM NaCl, 1.0% Triton X 100, 20 mM Tris-HCl, pH 7.5, 10% glycerol, 2 mM EDTA, Protease inhibitor cocktail, Roche) using a Polytron homogenization device. Lysates were incubated at 4° C. for 30 min and centrifuged at 14000 r.p.m. in an Eppendorf micro centrifuge for 15 min. Proteins were isolated in solublised form. Protein concentrations were measured by Bradford assay (Bio-Rad protein assay kit) and stored at −80° C. For immunobloting, 60 μg of total protein from the tumor lysates were used Proteins were resolved in a 10% SDS-polyacrylamide gel, transferred to the immobilon-P […] membrane and blocked with 5% (wt/v) non fat dry milk powder (Sigma) in TBST buffer (10 mM Tris pH 7.6, 150 mM NaCl and 0.1% Tween-20) for three hours at room temperature and then incubated with primary antibodies p53, pp53, p21, Cyclin D1, CDK4 and c-Myc in TBST for 3 h and with actin for 1 hour at room temperature. The membrane was incubated further with the secondary antibody HRP-conjugated (BD Bioscience) at 1:10000 dilution for 1 h at room temperature. Following each antibody incubation, the membrane was washed thoroughly with TBST buffer 3 times. The protein bands were visualized using the enhanced chemiluminescence substrate reaction (Pierce) according to the manufacturer's instructions using X-OMAT AR5 film (Kodak)

[5] = tested on: c-Myc; assay: Western blot of tumor homogenates of C57B1/6 mice; format: in vivo, mouse; details: tumor of C57 mice
Protocol: as §2

[6] = tested on: Cyclin D1; assay: Western blot of tumor homogenates of C57B1/6 mice; format: in vivo, mouse; details: tumor of C57 mice
Protocol: as §2

[7] = tested on: p21; assay: Western blot of tumor homogenates of C57B1/6 mice; format: in vivo, mouse; details: tumor of C57 mice
Protocol: as §2

[8] = tested on: CDK4; assay: Western blot of tumor homogenates of C57B1/6 mice; format: in vivo, mouse; details: tumor of C57 mice
Protocol: as §2

[9] = tested on: p53; assay: Western blot of tumor homogenates of C57B1/6 mice; format: in vivo, mouse; details: tumor of C57 mice, compared with control
Protocol: as §2

## C=C1C(OCC)C2(O)OCC34C(=C(C)c5c(C)cc(O)c(OCC)c5C23)OC(=O)C(OC(=O)C(C)(O)CC)C14 (stereo not drawn) [AECHL-1]
[1]; MCF-7, 4 μM
  Phase of cell cycle (% of cells) G1: 35.04%
  Phase of cell cycle (% of cells) G2/M: 36.65%
  Phase of cell cycle (% of cells) S: 27.20%
  Phase of cell cycle (% of cells) Sub G0: 1.61%
[1]; MCF-7, 10 μM
  Phase of cell cycle (% of cells) G1: 27.85%
  Phase of cell cycle (% of cells) G2/M: 36.78%
  Phase of cell cycle (% of cells) S: 34.19%
  Phase of cell cycle (% of cells) Sub G0: 1.99%
[1]; MCF-7, 20 μM
  Phase of cell cycle (% of cells) G1: 29.68%
  Phase of cell cycle (% of cells) G2/M: 31.98%
  Phase of cell cycle (% of cells) S: 37.44%
  Phase of cell cycle (% of cells) Sub G0: 1.81%
[1]; MCF-7, 40 μM
  Phase of cell cycle (% of cells) G1: 36.26%
  Phase of cell cycle (% of cells) G2/M: 29.42%
  Phase of cell cycle (% of cells) S: 32.50%
  Phase of cell cycle (% of cells) Sub G0: 2.55%
[1]; MCF-7, 100 μM
  % of cells in G0/G1 phase: 36.26%
[1]; MCF-7, 100 μM, control 45.13
  cell count in S-G2/M phase: 69.4%
[1]; MCF-7 cells
  phase of cell growth arrest: S-G2/M phase
[2]; PC3, 10 μM
  Phase of cell cycle (% of cells) G1: 50.74%
  Phase of cell cycle (% of cells) G2/M: 30.94%
  Phase of cell cycle (% of cells) S: 16.21%
  Phase of cell cycle (% of cells) Sub G0: 1.66%
[2]; PC3, 20 μM
  Phase of cell cycle (% of cells) G1: 48.96%
  Phase of cell cycle (% of cells) G2/M: 34.99%
  Phase of cell cycle (% of cells) S: 13.99%
  Phase of cell cycle (% of cells) Sub G0: 1.79%
[2]; PC3, 40 μM
  Phase of cell cycle (% of cells) G1: 44.26%
  Phase of cell cycle (% of cells) G2/M: 33.82%
  Phase of cell cycle (% of cells) S: 17.71%
  Phase of cell cycle (% of cells) Sub G0: 4.14%
[2]; PC3, 100 μM
  Phase of cell cycle (% of cells) G1: 42.92%
  Phase of cell cycle (% of cells) G2/M: 35.37%
  Phase of cell cycle (% of cells) S: 18.25%
  Phase of cell cycle (% of cells) Sub G0: 3.36%
[2]; PC3, 100 μM, vehicle 45.41%
  cell count in S-G2/M phase: 53.62%
[2]; PC3 cells
  phase of cell growth arrest: S-G2/M phase
[3]; MDA-231, 10 μM
  Phase of cell cycle (% of cells) G1: 43.03%
  Phase of cell cycle (% of cells) G2/M: 32.21%
  Phase of cell cycle (% of cells) S: 24.06%
  Phase of cell cycle (% of cells) Sub G0: 1.03%
[3]; MDA-231, 20 μM
  Phase of cell cycle (% of cells) G1: 33.18%
  Phase of cell cycle (% of cells) G2/M: 38.01%
  Phase of cell cycle (% of cells) S: 28.63%
  Phase of cell cycle (% of cells) Sub G0: 0.95%
[3]; MDA-231, 40 μM
  Phase of cell cycle (% of cells) G1: 26.66%
  Phase of cell cycle (% of cells) G2/M: 45.14% and 45.15%
  Phase of cell cycle (% of cells) S: 28.12%
  Phase of cell cycle (% of cells) Sub G0: 0.54%
[3]; MDA-231, 100 μM
  Phase of cell cycle (% of cells) G1: 22.82%
  Phase of cell cycle (% of cells) G2/M: 46.17%
  Phase of cell cycle (% of cells) S: 30.99%
  Phase of cell cycle (% of cells) Sub G0: 0.58%
[3]; MDA-MB 231 cells
  phase of cell growth arrest: S-G2/M phase
[4]; 50 μg
  phosphorylation of p53 (pp53): increasing
[4]; 100 μg
  phosphorylation of p53 (pp53): decreased
[5]
  expression of c-Myc: downragulation
[6]
  expression of cyclin D1: reduced the expression
[7]; 50 μg
  expression of p21: decrease
[7]; 100 μg
  expression of p21: increased
[8]
  expression of CDK4: reduced the expression
[9]; 50 μg
  p53 protein expression: increasing expression
[9]; 100 μg
  p53 protein expression: increasing expression
